Assay results from patent US8247211B2, “Glycopeptide antibiotics” (American Cyanamid Company, priority 2001, dated 2012).
In brackets after ≈: the same amount, converted by molar mass.

Assays:
[1] = type: in vivo; conditions: mice, 20 mg/kg intravenously daily for 9 days, serum on day 10
Description: 20-day-old CD-1 mice were divided into a vehicle control group (5 mice) and a treatment group (5 mice). Samples of glycopeptide antibiotics were administered at 20 mg/kg intravenously daily for 9 days. Animals were necropsied on day 10 Sera were analyzed for BUN (blood urea nitrogen), creatinine, AST (aspartic aminotransferase), and ALT (alanine aminotransferase) by routine, standard, automated methods using an Hitachi 747 chemistry analyzer.

[2] = test system: Staphylococcus aureus-SMITH (GC 4543); experiment: Acute lethal infection in mice (ED50); type: in vivo; conditions: female CD-1 mice, intraperitoneal challenge, intravenous dose 30 min. after infection, 7 day survival ratios
Outline: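 Female CD-1 mice (20 ± 1-2 g) were infected intraperitoneally with enough bacteria, suspended in Trypticase Soy Broth or hog gastric mucin, to kill untreated controls within 24-48 hr. Compound in saline or 5% dextrose was given intravenously 30 min after infection. ED50 came from pooled 7-day survival over 3 tests.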

[3] = test system: Streptococcus sp.; experiment: In vitro antibacterial evaluation: minimum inhibitory concentration (MIC), broth dilution method; type: cell-based; conditions: 18 hours at 35° C.
Outline: (§1)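 An MIC is reported for each organism as the least concentration giving inhibition, using broth dilution over 64-0.06 μg/mL with a 5×10^5 CFU/mL inoculum.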

[4] = test system: Escherichia coli; experiment: as above; type: cell-based; conditions: 18 hours at 35° C.
Outline: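 MIC read as lowest drug level preventing visible growth. Organisms at 5×10^5 CFU/mL were exposed to a 64-0.06 μg/mL dilution series in Muller-Hinton II […] following NCCLS broth dilution standard M7-A2.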

[5] = test system: Staphylococcus sp.; experiment: as above; type: cell-based; conditions: 18 hours at 35° C.
Outline: as §1

[6] = test system: Enterococcus sp.; experiment: as above; type: cell-based; conditions: 18 hours at 35° C.
Outline: as §1

[7] = Anatomic pathology (heart and kidney histopathology) in mice; type: in vivo, CD-1 mice; conditions: 20 mg/kg intravenously daily for 9 days, microscopic histopathology on day 10
Outline: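 Juvenile CD-1 mice (20 days old; 5 vehicle, 5 treated) received glycopeptide antibiotic 20 mg/kg i.v. daily for 9 days. Necropsied tissues formalin-fixed, paraffin-embedded, H&E stained and examined microscopically; findings graded slight to severe versus controls.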

[8] = broth dilution, inoculum 5×10^5 CFU/mL

COc1ccc2cc(COCC3OC(OC4C(CO)OC(Oc5ccc(CC6NC(=O)C(C(C)c7ccccc7)NC(=O)CNC(=O)C(CO)NC(=O)C(CC7CNC(=N)N7C7OC(CO)C(O)C(O)C7O)NC(=O)C(CC7CNC(=N)N7)NC6=O)cc5)C(O)C4O)C(O)C(O)C3O)ccc2c1 (stereo not drawn) [Example 245, Cyclo[3-(2-iminoimidazolidin-4-yl)alanyl-3-(3-hexopyranosyl-2-iminoimidazolidin-4-yl)-alanylserylglycyl-β-methylphenylalanyl-O-[4-O-[6-O-[(6-methoxy-2-naphthyl)methyl]-hexopyranosyl)hexopyranosyl]tyrosyl]]
Clinical Chemistry (Day 10) % of Control, BUN [1]: +160%
median effective dose (ED50), Staphylococcus aureus-SMITH (GC 4543) [2]: 4 mg/kg
MIC Streptococcus agalactiae (GC 4564) ([3]; Streptococcus agalactiae (GC 4564)): 4 µg/mL (≈ 2.79 µM)
MIC Streptococcus pneumoniae (ATCC 6301) ([3]; Streptococcus pneumoniae (ATCC 6301)): 2 µg/mL (≈ 1.4 µM)
MIC Streptococcus pneumoniae (GC 1894) ([3]; Streptococcus pneumoniae (GC 1894)): 1 µg/mL (≈ 0.698 µM)
MIC Streptococcus pneumoniae (GC 4565) ([3]; Streptococcus pneumoniae (GC 4565)): 4 µg/mL (≈ 2.79 µM)
MIC Streptococcus pyogenes (GC 4563) ([3]; Streptococcus pyogenes (GC 4563)): 4 µg/mL (≈ 2.79 µM)
MIC Streptococcus agalactiae (GC 4564) [3, 8]: 4 µg/mL (≈ 2.79 µM)
MIC Streptococcus pneumoniae (ATCC 6301) [3, 8]: 2 µg/mL (≈ 1.4 µM)
MIC Streptococcus pneumoniae (GC 1894) [3, 8]: 1 µg/mL (≈ 0.698 µM)
MIC Streptococcus pneumoniae (GC 4565) [3, 8]: 4 µg/mL (≈ 2.79 µM)
MIC Streptococcus pyogenes (GC 4563) [3, 8]: 4 µg/mL (≈ 2.79 µM)
MIC Escherichia coli (ATCC 25922) ([4]; Escherichia coli (ATCC 25922)): 64 µg/mL (≈ 44.6 µM)
MIC Escherichia coli (GC 4559) ([4]; Escherichia coli (GC 4559)): 32 µg/mL (≈ 22.3 µM)
MIC Escherichia coli (GC 4560) ([4]; Escherichia coli (GC 4560)): 4 µg/mL (≈ 2.79 µM)
MIC Coagulase Negative Staphylococcus (GC 4547) ([5]; Coagulase Negative Staphylococcus (GC 4547)): 4 µg/mL (≈ 2.79 µM)
MIC Coagulase Negative Staphylococcus (GC 4548) ([5]; Coagulase Negative Staphylococcus (GC 4548)): 2 µg/mL (≈ 1.4 µM)
MIC Coagulase Negative Staphylococcus (GC 4549) ([5]; Coagulase Negative Staphylococcus (GC 4549)): 1 µg/mL (≈ 0.698 µM)
MIC Coagulase Negative Staphylococcus (GC 4551) ([5]; Coagulase Negative Staphylococcus (GC 4551)): 8 µg/mL (≈ 5.58 µM)
MIC Coagulase Negative Staphylococcus (GC 6257) ([5]; Coagulase Negative Staphylococcus (GC 6257)): 2 µg/mL (≈ 1.4 µM)
MIC Staphylococcus aureus (ATCC 29213) ([5]; Staphylococcus aureus (ATCC 29213)): 4 µg/mL (≈ 2.79 µM)
MIC Staphylococcus aureus (GC 1131) ([5]; Staphylococcus aureus (GC 1131)): 8 µg/mL (≈ 5.58 µM)
MIC Staphylococcus aureus (GC 3051) ([5]; Staphylococcus aureus (GC 3051)): 4 µg/mL (≈ 2.79 µM)
MIC Staphylococcus aureus (GC 3053) ([5]; Staphylococcus aureus (GC 3053)): 4 µg/mL (≈ 2.79 µM)
MIC Staphylococcus aureus (GC 4541) ([5]; Staphylococcus aureus (GC 4541)): 4 µg/mL (≈ 2.79 µM)
MIC Staphylococcus aureus (GC 4542) ([5]; Staphylococcus aureus (GC 4542)): 4 µg/mL (≈ 2.79 µM)
MIC Staphylococcus aureus (GC 4544) ([5]; Staphylococcus aureus (GC 4544)): 8 µg/mL (≈ 5.58 µM)
MIC Staphylococcus aureus (GC 4545) ([5]; Staphylococcus aureus (GC 4545)): 4 µg/mL (≈ 2.79 µM)
MIC Staphylococcus aureus-SMITH (GC 4543) ([5]; Staphylococcus aureus-SMITH (GC 4543)): 4 µg/mL (≈ 2.79 µM)
MIC Staphylococcus haemolyticus (GC 4546) ([5]; Staphylococcus haemolyticus (GC 4546)): 4 µg/mL (≈ 2.79 µM)
MIC Enterococcus avium (GC 4558) ([6]; Enterococcus avium (GC 4558)): 16 µg/mL (≈ 11.2 µM)
MIC Enterococcus faecalis (ATCC 29212) ([6]; Enterococcus faecalis (ATCC 29212)): 32 µg/mL (≈ 22.3 µM)
MIC Enterococcus faecalis (GC 2242) ([6]; Enterococcus faecalis (GC 2242)): 16 µg/mL (≈ 11.2 µM)
MIC Enterococcus faecalis (GC 2691) ([6]; Enterococcus faecalis (GC 2691)): 32 µg/mL (≈ 22.3 µM)
MIC Enterococcus faecalis (GC 3059) ([6]; Enterococcus faecalis (GC 3059)): 16 µg/mL (≈ 11.2 µM)
MIC Enterococcus faecalis (GC 4552) ([6]; Enterococcus faecalis (GC 4552)): 16 µg/mL (≈ 11.2 µM)
MIC Enterococcus faecalis (GC 4553) ([6]; Enterococcus faecalis (GC 4553)): 16 µg/mL (≈ 11.2 µM)
MIC Enterococcus faecalis (GC 4554) ([6]; Enterococcus faecalis (GC 4554)): 32 µg/mL (≈ 22.3 µM)
MIC Enterococcus faecalis (GC 6189) ([6]; Enterococcus faecalis (GC 6189)): 32 µg/mL (≈ 22.3 µM)
MIC Enterococcus faecium (GC 2243) ([6]; Enterococcus faecium (GC 2243)): 16 µg/mL (≈ 11.2 µM)
MIC Enterococcus faecium (GC 4556) ([6]; Enterococcus faecium (GC 4556)): 16 µg/mL (≈ 11.2 µM)
MIC Enterococcus faecium (GC 4557) ([6]; Enterococcus faecium (GC 4557)): 4 µg/mL (≈ 2.79 µM)
MIC Enterococcus faecalis (GC 2242) [6, 8]: 16 µg/mL (≈ 11.2 µM)
MIC Enterococcus faecalis (GC 2691) [6, 8]: 32 µg/mL (≈ 22.3 µM)
MIC Enterococcus faecalis (GC 3059) [6, 8]: 16 µg/mL (≈ 11.2 µM)
Anatomical Pathology (Day 10), Heart [7]: 0
Anatomical Pathology (Day 10), Kidney [7]: +++
